As a reminder, the TGI is the concentration giving total growth inhibition. A high value points to lower sensitivity of the cells. By GI50 is commonly meant the concentration that inhibits growth by half.

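Method: 48-hour compound exposure of cells in 96-well plates, five concentrations, linear interpolation of endpoints. Here, GI50 denotes the concentration required for 50% inhibition of growth. The concentration for full growth arrest is given as TGI.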

The record followed here is PubChem BioAssay (NCI).

Among the test systems are ACHN renal; NCI-H23 lung; TK-10 renal; NCI-H460 lung; IGROV1 ovarian; OVCAR-8 ovarian; MALME-3M melanoma; SF-268 CNS.
Test in all cases: DTP human tumour cell line panel, 48 h

As to `Cc1nn(-c2ccccc2)c2nc(N3CCOCC3)nnc12`, the TGI with ACHN renal, with NCI-H23 lung, with TK-10 renal, in the assay with NCI-H460 lung, with IGROV1 ovarian and with OVCAR-8 ovarian was above 100 µM throughout. For the same compound, the concentration for total growth inhibition (TGI) in the assay on MALME-3M melanoma and with SF-268 CNS was above 100 µM each time.

For the compound `N#Cc1nc(Nc2cccc3ccccc23)sc1N`, the TGI was 75.3 µM in the assay on ACHN renal; 47.2 µM in the assay on NCI-H23 lung; 76.9 µM in the assay with TK-10 renal; above 100 µM in the assay on NCI-H460 lung; above 100 µM with IGROV1 ovarian; above 100 µM in the assay on OVCAR-8 ovarian. Moreover, the TGI in the assay with MALME-3M melanoma and in the assay with SF-268 CNS was above 100 µM throughout.

With `CCOc1ccccc1C=C1c2ccccc2C(=O)c2ccccc21`, the TGI is above 100 µM with ACHN renal; above 100 µM with NCI-H23 lung; 45.6 µM in the assay on TK-10 renal; 31.9 µM in the assay with NCI-H460 lung; above 100 µM in the assay on IGROV1 ovarian; 43 µM in the assay on OVCAR-8 ovarian. Further, the total growth inhibition concentration (TGI) in the assay on MALME-3M melanoma and in the assay on SF-268 CNS was above 100 µM in each case.

Consider `COC(=O)c1cc2c(s1)C(=O)c1ccccc1-2`, for which the TGI in the assay on ACHN renal, in the assay with NCI-H23 lung, in the assay with TK-10 renal, in the assay with NCI-H460 lung, in the assay on IGROV1 ovarian and in the assay on OVCAR-8 ovarian was above 100 µM each time. The concentration for total growth inhibition (TGI) in the assay on MALME-3M melanoma and in the assay with SF-268 CNS was above 100 µM each time.

In the case of `Cc1cc([N+](=O)[O-])ccc1Nc1cccc(Cl)c1C`, the TGI came to 41.4 µM with ACHN renal; 33.3 µM in the assay on NCI-H23 lung; 30 µM in the assay with TK-10 renal; 27.6 µM with IGROV1 ovarian; 30.3 µM in the assay with OVCAR-8 ovarian; 29.2 µM in the assay on MALME-3M melanoma. This compound also yielded a TGI in the assay on SF-268 CNS of 35.8 µM.

For the compound `CC1(C)COC(c2cccnc2/C=N/O)=N1`, the total growth inhibition concentration (TGI) in the assay on ACHN renal, with NCI-H23 lung, with TK-10 renal, in the assay on NCI-H460 lung, in the assay on IGROV1 ovarian and with OVCAR-8 ovarian was above 100 µM throughout. Moreover, the concentration for total growth inhibition (TGI) with MALME-3M melanoma and with SF-268 CNS was above 100 µM each time.

Take `NNC(=S)N/N=C(\CC1OC(=O)c2ccccc21)c1ccccc1O` (stereo not given): the TGI in the assay on ACHN renal, in the assay with NCI-H23 lung, in the assay with TK-10 renal, with NCI-H460 lung, with IGROV1 ovarian and in the assay on OVCAR-8 ovarian was above 100 µM in each case. In addition, the total growth inhibition concentration (TGI) with MALME-3M melanoma and in the assay on SF-268 CNS was above 100 µM each time.

As for `COC1(OC)CC2C(=O)N(Cc3ccccc3)C1C(S(=O)(=O)c1ccccc1)C2S(=O)(=O)c1ccccc1` (stereo not given), the TGI in the assay on ACHN renal turned out to be 22.4 µM; in the assay with NCI-H23 lung it was 28.1 µM; with TK-10 renal, 28.5 µM; with NCI-H460 lung, 82.7 µM; with IGROV1 ovarian it was 32.3 µM; in the assay on OVCAR-8 ovarian, 23.4 µM. The TGI in the assay on MALME-3M melanoma and with SF-268 CNS was 29.3 µM throughout.

As to `CCC[CH2][Sn]1([CH2]CCC)[O]N=C(c2ccccc2)C(c2ccccc2)[O]1` (stereo not given), the GI50 was 1.72 µM in the assay on ACHN renal; 1.28 µM with NCI-H23 lung; 1.9 µM in the assay with TK-10 renal; 4.46 µM in the assay with NCI-H460 lung; 1.89 µM in the assay with IGROV1 ovarian; 1.87 µM in the assay on OVCAR-8 ovarian. In addition, the GI50 with MALME-3M melanoma was 1.13 µM. Moreover, the TGI with ACHN renal was 3.1 µM; in the assay with NCI-H23 lung, 2.64 µM; in the assay with TK-10 renal it was 4.09 µM; with NCI-H460 lung, 15.8 µM; in the assay with IGROV1 ovarian it was 3.9 µM; with OVCAR-8 ovarian, 3.96 µM. Moreover, the TGI in the assay with MALME-3M melanoma turned out to be 2.49 µM.

`CN(C)c1ccc(C(C=C2c3ccccc3Sc3ccccc32)=C(C#N)C#N)cc1`: the concentration for total growth inhibition (TGI) with ACHN renal, with NCI-H23 lung, in the assay on TK-10 renal, in the assay on NCI-H460 lung, with IGROV1 ovarian and in the assay with OVCAR-8 ovarian was above 100 µM each time. The concentration for total growth inhibition (TGI) with MALME-3M melanoma and in the assay on SF-268 CNS was above 100 µM throughout.

As to `CN(C)/C=N/c1nc2c(ncn2C2OC(CO)C(O)C2O)c(=O)[nH]1` (stereo not given), the TGI in the assay with ACHN renal, in the assay on NCI-H23 lung, in the assay on TK-10 renal, with NCI-H460 lung, in the assay on IGROV1 ovarian and in the assay with OVCAR-8 ovarian was above 100 µM each time. Further, the TGI in the assay with MALME-3M melanoma and with SF-268 CNS was above 100 µM throughout.

As for `O=C(CCn1[nH]c(=O)c(Cl)c(Cl)c1=O)NO`, the total growth inhibition concentration (TGI) in the assay with ACHN renal, in the assay with NCI-H23 lung, in the assay on TK-10 renal, with NCI-H460 lung, in the assay on IGROV1 ovarian and in the assay with OVCAR-8 ovarian was above 100 µM throughout. Further, the total growth inhibition concentration (TGI) with MALME-3M melanoma and in the assay on SF-268 CNS was above 100 µM throughout.

Consider `COC(=O)C1=C(O)c2cc(OC)c(OC)cc2C(c2ccc(OC)c(OC)c2)C1` (stereo not given), for which the TGI in the assay with ACHN renal, in the assay with NCI-H23 lung, with TK-10 renal, in the assay on NCI-H460 lung, with IGROV1 ovarian and with OVCAR-8 ovarian was above 100 µM throughout. For the same compound, the TGI in the assay on MALME-3M melanoma and in the assay on SF-268 CNS was above 100 µM each time.

Take `COc1ccc(C(=O)C(c2ccc(OC)cc2)C2(O)C(=O)Nc3ccc([N+](=O)[O-])cc32)cc1` (stereo not given): the TGI in the assay with ACHN renal, in the assay on NCI-H23 lung, with TK-10 renal, in the assay on NCI-H460 lung, in the assay with IGROV1 ovarian and in the assay on OVCAR-8 ovarian was above 100 µM each time. Further, the concentration for total growth inhibition (TGI) in the assay on MALME-3M melanoma and in the assay on SF-268 CNS was above 100 µM in each case.

Consider `CC1=NNC(=O)C2CCC(=O)N12` (stereo not given), for which the TGI in the assay with ACHN renal, in the assay with TK-10 renal, with NCI-H460 lung, with IGROV1 ovarian, in the assay with OVCAR-8 ovarian and with MALME-3M melanoma was above 100 µM in each case. In the assay on SF-268 CNS, the TGI is above 100 µM.

In the case of `CN(C)c1nc2ccccc2[nH]1`, the TGI in the assay with ACHN renal, with NCI-H23 lung, in the assay with TK-10 renal, in the assay on NCI-H460 lung, in the assay with IGROV1 ovarian and in the assay on OVCAR-8 ovarian was above 100 µM in each case. In addition, the TGI in the assay on MALME-3M melanoma and with SF-268 CNS was above 100 µM throughout.

Regarding `Cc1cc(CC(O)c2ccc(Cl)c(Cl)c2)nc(=O)[nH]1` (stereo not given), the TGI with ACHN renal, in the assay on NCI-H23 lung, in the assay on TK-10 renal, in the assay on NCI-H460 lung, in the assay with OVCAR-8 ovarian and in the assay with MALME-3M melanoma was above 100 µM in each case. Besides, the TGI with SF-268 CNS is above 100 µM.

Take `[N-]=[N+]=NC12CC3C4CC5CC3C(C1)C(C5)C4C2`: the TGI with ACHN renal, in the assay on NCI-H23 lung, in the assay on TK-10 renal, with NCI-H460 lung, with IGROV1 ovarian and in the assay on OVCAR-8 ovarian was above 100 µM throughout. Besides, the TGI in the assay on MALME-3M melanoma and with SF-268 CNS was above 100 µM throughout.

Consider `CC1=C(C(=O)Nc2ccccc2)C(c2ccccc2)C(C(=O)Nc2ccccc2)=C(C)N1`, for which the concentration for total growth inhibition (TGI) with ACHN renal, in the assay with NCI-H23 lung, in the assay on TK-10 renal, with NCI-H460 lung, in the assay with IGROV1 ovarian and with OVCAR-8 ovarian was above 100 µM in each case. The concentration for total growth inhibition (TGI) in the assay on MALME-3M melanoma and in the assay on SF-268 CNS was above 100 µM throughout.

For `O=C(/C=C/c1ccccc1O)c1ccccc1O`, the concentration for total growth inhibition (TGI) in the assay on ACHN renal, in the assay with NCI-H23 lung, in the assay with TK-10 renal, with NCI-H460 lung, in the assay on IGROV1 ovarian and in the assay with OVCAR-8 ovarian was above 100 µM each time. The total growth inhibition concentration (TGI) in the assay with MALME-3M melanoma and in the assay with SF-268 CNS was above 100 µM in each case.

Turning to `S=C(Nc1ccccc1)N(/N=C/C=C/c1ccccc1)c1nnc(-c2ccccc2)c(-c2ccccc2)n1`, the TGI with ACHN renal, with NCI-H23 lung, with TK-10 renal, in the assay with NCI-H460 lung, in the assay with IGROV1 ovarian and in the assay on OVCAR-8 ovarian was above 100 µM each time. Moreover, the TGI in the assay with MALME-3M melanoma and with SF-268 CNS was above 100 µM in each case.

On to `COc1ccc2c3c([nH]c2c1[N+](=O)[O-])C(C)=NCC3`, for which the TGI in the assay on ACHN renal was above 100 µM; with TK-10 renal, above 100 µM; with NCI-H460 lung it was above 100 µM; with IGROV1 ovarian, 77.2 µM; in the assay with OVCAR-8 ovarian, above 100 µM; in the assay on SF-268 CNS, 64.7 µM.

On to `CCCN=C(N)NC#N`, for which the total growth inhibition concentration (TGI) with ACHN renal, in the assay with NCI-H23 lung, in the assay on TK-10 renal, with NCI-H460 lung, with IGROV1 ovarian and with OVCAR-8 ovarian was above 100 µM throughout. Besides, the total growth inhibition concentration (TGI) in the assay with MALME-3M melanoma and in the assay with SF-268 CNS was above 100 µM throughout.

On to `Cc1ccc(NC(=O)C(=O)C(C(=O)c2ccc3ccccc3c2)C2OC(=O)c3ccccc32)cc1C` (stereo not given), for which the concentration for total growth inhibition (TGI) in the assay on ACHN renal was above 100 µM; in the assay with NCI-H23 lung, 18 µM; with TK-10 renal, 94.6 µM; in the assay on NCI-H460 lung, 51.4 µM; with IGROV1 ovarian it was 64 µM; with OVCAR-8 ovarian it was 66.2 µM. Further, the TGI with MALME-3M melanoma amounted to 57.8 µM; in the assay with SF-268 CNS it was 52.8 µM.

`COc1cccc(/C=C/c2cc(OC)c(OC)c(OC)c2)c1`: the TGI in the assay with ACHN renal, in the assay on NCI-H23 lung, in the assay with NCI-H460 lung, in the assay on IGROV1 ovarian, in the assay on OVCAR-8 ovarian and in the assay on MALME-3M melanoma was above 100 µM throughout. Further, the TGI with SF-268 CNS was above 100 µM.
